Each block holds one compound with its values, some of them ahead of it.
Experiments:
human monocytes (Mo) = assay: M1/M2 gene expression in human monocytes (Real-Time PCR); type: cell-based; conditions: excluding Mo from one healthy donor
Method: To evaluate the effects of TMX on human cell activation, monocytes were isolated from buffy coats obtained from four different healthy donors. With respect to macrophage tolerance, cells were treated with Compound 2 (10 microM) up to 20 hours and then re-challenged with agonists/ligands of different TLRs (TLR2, TLR4, TLR5, TLR9, TLR7, etc. . . . ), including the TLR7 unconjugated ligand 1V209 (free pharmacophore) at a concentration of 10 microM.
Cell Culture and treatments. Monocytes (Mo) were obtained from buffycoats collected from healthy donors as previously described (Porta C et al, PNAS 2009). Cells were incubated in RPMI 1640 medium, containing 10% fetal bovine serum, 2 mM glutamine and 100 U/ml of penicillin-streptomycin. The concentrations for the different treatments were as follows: LPS (100 ng/ml) (Lipopolysaccharide from Salmonella Abortus Equi S-form, Alexis), CpG (1 microg/ml), Pam3CSK (2 microg/ml), Poly I:C (10 microg/ml), Loxorubine (100 microM), flagellin (100 ng/ml). To induce TMX tolerance, cells were incubated in the presence of TMX (10 microM) for 20 hrs, washed and maintained in RPMI medium for 2 hrs and then re-challenged with TMX (10 microM) for 4 hrs. To induce TMX-tolerization (T/M) cells were treated with TMX for 20 hrs, washed and then maintained in medium for additional 6 hours, without TMX re-challenge. To induce M1-activation cells were incubated in medium for 20 hrs, washed, left in medium for 2 hrs and finally stimulated with TMX (10 microM) for 4 hrs. Control cells (M/M) were cultured in medium for the entire period of the experiment. For gene expression analysis, total RNA was extracted from TMX treated and untreated cells with trizol (Invitrogen), according to the manufacturer's instructions. To analyze cytokines and chemokines production supernatants were collected 24 hrs after the second challenge with TMX.
(§1) Real-Time PCR. Total RNA was purified as previously described. Briefly, reverse transcription from 1 microgram of RNA was performed using a cDNA Archive kit (Applied Biosystem, NJ, USA). Real time PCR was performed using Power Syber Green PCR Master Mix (Applied Biosystem, NJ, USA) and detected by 7900HT Fast Real-Time System (Applied Biosystem, NJ, USA). Data were processed using the SDS2.2.2 software (Applied Biosystem, NJ, USA). Results were normalized to the expression of the housekeeping gene 8-actin and then expressed as folds of upregulation, with respect to the control cell population.

[1] = test system: murine peritoneal macrophages (PEC); assay: Dose-response of M1 and M2 gene expression in PEC (RT PCR); type: cell-based, mice; conditions: PECs treated 4 hours or 20 hours with increased concentrations
Method: A third group of experiments was performed to investigate the dose-response effects of TMX, its potency as compared to classical inflammatory signals (e.g. LPS) and the activation of selected transcription factors playing an established role in tolerance, as well as in the induction of M1/M2 polarized inflammatory programs. PECs treated for 4 hours or 20 hours with 100 ng/mlof LPS or increased concentrations of TMX or 1V209 were analyzed by RT PCR for the expression of representative M1 (TNFα, IL-12p40) and M2 (IL-10, TGFβ) genes. […] In this experiment, as compared to 1V209, TMX is a lower inducer of M1 genes expression.
Cell Culture and treatments. Peritoneal exudate cells (PEC) were harvested from mice injected with 1 ml of 3% (w/v) thioglycollate medium (Difco, Detroit, Mich.) 4 days prior to isolation. PECs were incubated in RPMI 1640 medium, containing 10% fetal bovine serum, 2 mM glutamine and 100 U/ml of penicillin-streptomycin. The concentration for the different treatments were as follows: LPS (100 ng/ml) (Lipopolysaccharide from Salmonella Abortus Equi S-form, Alexis), CpG (1 μg/ml), Pam3CSK (2 μg/ml), Poly I:C (10 μg/ml), Loxorubine (100 μM), flagellin (100 ng/ml) IL-1β (20 ng/ml), TNF (20 ng/ml), IL-10 (20 ng/ml) (Peprotech), IFNγ (200 U/ml) (Peprotech). To induce TMX tolerance, cells were incubated in the presence of TMX (10 μM or 1 μM) for 20 hrs, washed and maintained in RPMI medium for 2 hrs and then re-challenged with TMX (10 μM) for 4 hrs. To induce TMX-tolerization (T/M) cells were treated with TMX for 20 hrs, washed and then maintained in medium for additional 6 hours, without TMX re-challenge. To induce M1-activation, cells were incubated in medium for 20 hrs, washed, left in medium for 2 hrs and finally stimulated with TMX (10 μM) for 4 hrs. Control cells (M/M) were cultured in medium for the entire period of the experiment. For gene expression analysis, total RNA was extracted from TMX treated and untreated cells with trizol (Invitrogen), according to the manufacturer's instructions. To analyze cytokines and chemokines production supernatants were collected 24 hrs after the second challenge with TMX.
as §1, with “μg” for “microgram”, “using” for “using a”, “β-actin” for “8-actin”

[2] = PK analysis after i.v. administration in mice; type: in vivo
[3] = Dissolution in suitable solvents for testing; type: physicochemical

SMILES: COCCOc1nc(N)c2[nH]c(=O)n(Cc3ccc(C(=O)O)cc3)c2n1 [Compound 1V209, 4-((6-amino-2-(2-methoxyethoxy)-8-oxo-7H-purin-9(8H)-yl)methyl)benzoic acid, reference compound]
- potency as compared to Compound 2 in terms of induction of both M1 and M2 gene expression (human monocytes (Mo)): higher potency
- induction of both M1 and M2 gene expression [1]: dose-dependent induction

- AUC in comparison with Compound 3 [2]: lower
- Cmax in comparison with Compound 3 [2]: lower
- clearance in comparison with Compound 3 [2]: higher
- half life in comparison with Compound 3 [2]: longer
SMILES: COCCOc1nc(N)c2nc(O)n(Cc3ccc(C(=O)NCCOCCOCCOCCOCCOCCOCCOCCOCCOCCOCCn4cc(CCC(=O)O)nn4)cc3)c2n1 [Compound 6, 3-(1-(1-(4-((6-amino-8-hydroxy-2-(2-methoxyethoxy)-9H-purin-9-yl)methyl)phenyl)-1-oxo-5,8,11,14,17,20,23,26,29,32-decaoxa-2-azatetratriacontan-34-yl)-1H-1,2,3-triazol-4-yl)propanoic acid]

- dissolution in suitable solvents for testing [3]: difficulty in dissolution
SMILES: CCCCCCCC/C=C\CCCCCCCC(=O)OCC(COP(=O)(O)OCCNC(=O)c1ccc(Cn2c(=O)[nH]c3c(N)nc(OCCOC)nc32)cc1)OC(=O)CCCCCCC/C=C\CCCCCCCC (stereo not shown) [compound (6), 2-(4-((6-amino-2-(2-methoxyethoxy)-8-oxo-7H-purin-9(8H)-yl)methyl)benzamido)ethyl 2,3-bis(oleoyloxy)propyl phosphate]

Source: patent US20120083473A1, “TREATMENT OF CONDITIONS BY TOLL-LIKE RECEPTOR MODULATORS” (priority 2010, published 2012)
